{"source": "patent US6358736B1", "about": "“Method for increasing the antigen presenting ability of leukemia cells” (The United States of America as represented by the …, priority 1995, dated 2002)", "key": {"HL-60 cells [1]": {"tested_on": "HL-60 cells", "assay": "FACS analysis of cell surface markers on HL-60 cells", "format": "cell-based, human", "conditions": "optimal doses, within 20 hours"}, "[2]": {"tested_on": "B cell subpopulation within the PBMC", "assay": "FACS analysis of B cell subpopulation in unfractionated PBMC", "format": "cell-based, human", "conditions": "A23187 750 mg/ml, 40 hours", "method": "PBMC were prepared by leukapheresis and Ficoll-Hypaque and placed in culture. Since the cells were never elutriated and no adherence step was performed, these cultures included large numbers of T, B, and NK lymphocytes as well as monocytes. The medium was our standard RPMI 10% human AB serum with antibiotics including amphotericin B. Cells were either untreated or treated for 40 hours with calcium ionophore A23187 […]. Cells were then harvested and analyzed by FACS. Cells were stained with FITC conjugated anti-CD3, anti-CD40, anti-CD57, anti-CD14, or the combination; in addition cells were stained with PE conjugated control antibodies, anti-B7.1, anti-B7.2, etc. In this way the effect of calcium ionophore treatment on each parameter could be clearly delineated."}, "[3]": {"tested_on": "human peripheral blood monocytes", "assay": "FACS analysis of cell surface markers on cultured peripheral blood monocytes", "format": "cell-based"}, "[4]": {"tested_on": "bone marrow-derived CD34pos cells", "assay": "FACS and morphologic analysis of cultured bone marrow-derived CD34pos cells", "format": "cell-based, human", "method": "Bone marrow-derived highly purified CD34^pos cells were cultured for six days in medium containing 20% fetal calf serum, rhSCF, rhGM-CSF, and rhTNF-alpha. […] Cells were centrifuged and replated in 24 well plates in fresh medium containing rhGM-CSF, and rhTNF-alpha but not rhSCF. In addition, individual wells were treated with varied doses of ionophore A23187. Wells were harvested 1, 2, and 6 days subsequently, subjected to FACS analysis or studied morphologically for DC characteristics utilizing polylysine-coated glass slides and Nomarski optics."}, "[5]": {"tested_on": "pooled monocyte plus dendritic cell elutriation fractions", "assay": "FACS analysis of pooled 150-190 elutriation (APC) fractions after calcium ionophore activation", "format": "cell-based, human", "conditions": "500 ng A23187", "method": "Two patients were hooked up to Fenwal™ CS-3000 leukapheresis apparatus' running a Procedure 8 modification software program. Patient #1 had been previously diagnosed with colon cancer, and Patient #2 was a normal control. The Fenwal™ apparatus was configured to isolate a sample of neutrophil-depleted, platelet-rich cells from each patients' peripheral blood. After 3-5 hours of leukaphereis, the isolated blood cells from each patient were quickly spun down in a centrifuge and then rinsed in citrate buffer to remove any excess plasma, tumor related proteins or calcium.\nFollowing the citrate buffer rinse, the cells were resuspended in EDTA-free, Ca^++/Mg^++ HBSS. The isolated cells from each patient were then subject to elutriation on a Beckman™ JE-6B elutriation rotor. Once reaching a speed of 3000 rpm, 5×10^9 cells were elutriated by pressurized air at buffer flow rates of 120, 140, 150, 160, 170, 180, 190 and 200 cc/minute.\nEach fraction from both patients were immediately placed on ice to prevent cell adherence to the plastic walls of the collection vials. We coulter counted each of the fractions and discarded the r/o fraction because it had greater than a 10% contamination of neutrophils. The 150, 160, 170, 180 and 190 cc/min fractions from Patient #1 and Patient #2 were pooled then subject to calcium ionophore. The pooled fractions from each patient were divided in half, with one half being activated by 500 ng of calcium ionophore A23187 (Sigma), and one half being inactivated. From our previous experiments, we expected that the calcium ionophore treated cells would have a much higher number of dendritic cells due to conversion of monocytes to DCs. Prior to FACS analysis, we activated Patient #1's pooled fractions by incubating both the untreated and calcium ionophore treated cells for 40 hours in the presence of an autologous tumor cell lysate (the patients own tumor cells). Similarly, we activated Patient #2's pooled fractions by incubating both the untreated and calcium ionophore treated cells in the presence of keyhole limpet hemocyanin (KLH) for 40 hours.\nThe vast majority of cells stained in the pooled fractions were expected to be CD14+(ie: monocytes). The horizontal (X) axis of the FACS plot illustrated staining for DR, B7.1 or B72 surface antigens."}, "HL-60 cells [6]": {"tested_on": "HL-60 cells", "assay": "FACS analysis of cell surface markers on HL-60 cells", "format": "cell-based, human", "method": "Calcium was removed from cultured cells by two methods.\nThe second method involved washing the cells extensively in calcium-free RPMI medium, and culturing them in the same calcium-free medium supplemented with serum that had been dialyzed against calcium-free phosphate-buffered saline.\nThe calmodulin kinase inhibitors KN-62 (20 uM) or KT-5926 (1 uM) was added to HL-60 cells in the presence of 188 ng/ml A23187. Twenty four hours later the level of CD80 was analyzed.\nThapsigargin was added to cultured human peripheral blood monocytes and HL-60 cells in concentrations ranging from 0 to 1000 nM. Cells were harvested 24 hours later and evaluated for the acquisition of ADC immunophenotypic characteristics by FACS analysis.\nCells were harvested after three days, irradiated (3000R), then FACS analyzed or cocultured in graded numbers with freshly prepared naive (CD45RO negative) T lymphocytes. Allosensitization was assessed by pulsing at day 4 with ^3H-TdR and harvesting 18 hours later."}, "[7]": {"conditions": "as E78, vs expression prior to culture"}, "[8]": {"conditions": "calcium-free RPMI and dialyzed serum"}, "[9]": {"conditions": "within 18 hours of treatment initiation"}, "[10]": {"conditions": "colon cancer patient, 40 hours with autologous tumor cell lysate"}, "[11]": {"conditions": "normal donor, 40 hours with KLH"}}}
{"smiles": "CNc1ccc2oc(C[C@H]3O[C@@]4(CC[C@H]3C)O[C@H]([C@H](C)C(=O)c3ccc[nH]3)[C@H](C)C[C@H]4C)nc2c1C(=O)O", "note": "[A23187]", "values": [{"measurement": "expression of CD83, ICAM-1, B7.1 and B7.2", "setting": "HL-60 cells [1]", "value": "uniform de novo expression of CD83, ICAM-1, B7.1, and B7.2"}, {"measurement": "B7.1 and B7.2 expression", "setting": "[2]", "value": "a subpopulation of B cells developed marked B71 and B72 expression"}, {"measurement": "optimal concentration for DC differentiation of monocytes", "setting": "[3]; 10% FCS", "value": "180 to 375", "unit": "ng/mL"}, {"measurement": "CD14 expression downregulated", "setting": "[3]; 20 hours, 10% AB serum, amphotericin B omitted, low endotoxin, A23187 750 ng/ml or cytokines (rhIL4 1000 u/ml; +rhGM-CSF 100 ng/ml; +rhTNF-alpha 100 u/ml)", "value": 90, "unit": "%"}, {"measurement": "surface marker expression in purified monocyte and DC cultures", "setting": "[3]; A23187 750 ng/ml, 40 hours", "value": "upregulation of B7.1, B7.2, ICAM-1., HLA-DR, HLA-ABC, CD40, and CD83"}, {"measurement": "surface marker expression of purified (>98%) CD14pos monocytes vs prepurified fractions", "setting": "[3]; A23187 750 ng/ml, 40 hours", "value": "downregulated CD14, and upregulated B7.1, B7.2, ICAM-1, HLA-DR, HLA-ABC, CD40 and CD83 equivalently"}, {"measurement": "activation and dendritic cell phenotypic conversion of pooled monocyte plus DC fractions", "setting": "[3]; added at the beginning of a 24-48 hr culture period", "value": "uniform activation and dendritic cell phenotypic conversion"}, {"measurement": "B7.1 expression increase", "setting": "[3]; [7]", "value": 14, "unit": "fold"}, {"measurement": "B7.2 expression increase", "setting": "[3]; [7]", "value": 7.5, "unit": "fold"}, {"measurement": "CD83 expression increase", "setting": "[3]; [7]", "value": 8.7, "unit": "fold"}, {"measurement": "HLA-ABC expression increase", "setting": "[3]; [7]", "value": 3.0, "unit": "fold"}, {"measurement": "HLA-DQ expression increase", "setting": "[3]; [7]", "value": 3.4, "unit": "fold"}, {"measurement": "HLA-DR increase", "setting": "[3]; [7]", "value": 2.9, "unit": "fold"}, {"measurement": "suppression of ionophore-induced B7.1 upregulation", "setting": "[3]; [8]", "value": 100, "unit": "%"}, {"measurement": "suppression of ionophore-induced CD14 downregulation", "setting": "[3]; [8]", "value": 53, "unit": "%"}, {"measurement": "optimal concentration for DC differentiation of monocytes", "setting": "[3]; media with 5% AB serum", "value": "375 to 750", "unit": "ng/mL"}, {"measurement": "CD40 expression", "setting": "[3]; more uniform by 40 hours of treatment", "value": "Modest upregulation of CD40"}, {"measurement": "optimal concentration for DC differentiation of monocytes", "setting": "[3]; serum free media", "value": "45 to 90", "unit": "ng/mL"}, {"measurement": "morphology by electron microscopy", "setting": "[3]; within 20-40 hours of treatment", "value": "markedly increased endoplasmic reticulum, lysosomal and Golgi content"}, {"measurement": "B7.1 (CD80) expression", "setting": "[3]; [9]", "value": "Variable levels of de novo expression of B7.1 (CD80)"}, {"measurement": "B7.2 (CD86) expression", "setting": "[3]; [9]", "value": "marked upregulation of B7.2 (CD86)"}, {"measurement": "CD83 expression", "setting": "[3]; [9]", "value": "de novo and essentially uniform expression"}, {"measurement": "cell surface CD14 expression", "setting": "[3]; [9]", "value": "marked downregulation of cell surface CD14"}, {"measurement": "increase in purity of cells with activated myeloid dendritic cell phenotype at final harvest", "setting": "[4]", "value": "approximately six"}, {"measurement": "CD14 expression", "setting": "[4]; 375-750 ng/ml, within 20 hours", "value": "marked CD14 downregulation"}, {"measurement": "cells with marked upregulation of B7.1, B7.2, ICAM-1, CD83, CD40 and CD1a", "setting": "[4]; 375-750 ng/ml, within 20 hours", "value": "> 85 % of cells"}, {"measurement": "increase in yield of cells with activated myeloid dendritic cell phenotype vs wells without ionophore", "setting": "[4]; absolute numbers of cells recovered", "value": "approximately three"}, {"measurement": "optimal concentration for dendritic cell immunophenotype", "setting": "[4]; within 20 hours of treatment", "value": "375 to 750", "unit": "ng/mL"}, {"measurement": "morphology", "setting": "[4]; within 40 hours of treatment", "value": "virtually all cells manifested dendritiform morphology"}, {"measurement": "B7.1 expression", "setting": "[5]; [10]", "value": "substantial but less uniform upregulation of B7.1"}, {"measurement": "HLA-DR and B7.2 expression", "setting": "[5]; [10]", "value": "marked upregulation of HLA-DR and B7.2"}, {"measurement": "conversion of cells to cocktail negative (dendritic) phenotype", "setting": "[5]; [10]", "value": "vast majority of cells were now converted to cocktail negative"}, {"measurement": "HLA-DR, B7.1 and B7.2 expression", "setting": "[5]; [11]", "value": "markedly upregulated for HLA-DR, B7.1 and B7.2"}, {"measurement": "conversion of cells to cocktail (CD3, CD14, CD20, CD56) negative (dendritic) phenotype", "setting": "[5]; [11]", "value": "vast majority of these cells was now cocktail negative"}, {"measurement": "costimulatory molecule expression", "setting": "HL-60 cells [6]; A23187 180 ng/ml, three days", "value": "marked upregulation of costimulatory molecules B7.1, B7.2, and ICAM-1"}, {"measurement": "HLA-DR expression", "setting": "HL-60 cells [6]; agent alone", "value": "not induced"}, {"measurement": "ablation of ionophore-induced upregulation of CD80 and CD86", "setting": "HL-60 cells [6]; [8]", "value": "~100", "unit": "%"}]}
